Results: US5936097A, “4,9-ethano-benzo(F)isoindole derivatives as farnesyl transferase inhibitors” (Rhone-Poulenc Rorer, S.A., priority 1995, dated 1999)
Counter-ions that a name gives are not always drawn.

Target: T1, human farnesyl transferase (Homo sapiens, UniProt P49354+P49356)
T1 construct: human farnesyl transferase purified from THP1 cell cultures; endogenous in cells; host or cells: THP1 cell cultures (enzyme purified from the cells)
Test: inhibition of farnesyl transferase ((3H) farnesyl transfer from (3H) FPP to p21 H-ras)
Type: biochemical
Details: not given
How it was run: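 Radiometric transfer of [3H]farnesyl from 4.5 pmol [3H]FPP to 200 pmol p21 H-ras by ~5 ng human enzyme purified from THP1 cells, in 50 mM Tris-HCl, 5 mM MgCl2, 5 mM DTT, 0.2% octyl glucoside, 20 min at 37 °C. Protein precipitated with SDS/TCA in methanol, filter-bound counts measured; IC50 from 9 concentrations, triplicate.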

Structure (SMILES)	IC50 [nM]
COc1ccccc1OC(=O)N1C[C@H]2[C@@]3(c4ccccc4)CC[C@H](c4ccccc43)[C@@]2(C(=O)O)C1 (relative stereo) [Example 27, (3aRS, 4SR, 9SR, 9aRS)-4,9-ethano-2-(2-methoxyphenyl)oxycarbonyl-9-phenyl-1,2,3,3a,9,9a-hexahydro-1H-benzo[f]isoindole-3a-carboxylic acid]	5800
CCOP(=O)(C[C@]12CN(C(=O)Cc3ccccc3OC)C[C@H]1[C@@]1(c3ccccc3)CC[C@@H]2c2ccccc21)OCC (relative stereo) [Example 22, diethyl ester of [(3aRS, 4SR, 9SR, 9aRS)-4,9-ethano-2-(2-methoxyphenyl)acetyl-9-phenyl-2,3,3a,4,9,9a-hexahydro-1H-benzo[f]isoindol-3a-yl]methylphosphonic acid]	10000
COc1ccccc1C(=O)C(=O)N1C[C@@H]2[C@]3(c4ccccc4)CC[C@@H](c4ccccc43)[C@]2(C(=O)O)C1 (racemic) [Example 42, (3aRS,4SR,9SR,9aRS)-4,9-ethano-2-[2-(2-methoxyphenyl)-2-oxoacetyl]-9-phenyl-2,3,3a,4,9,9a-hexahydro-1H-benzo[f]isoindole-3a-carboxylic acid]	8450
CCOc1ccccc1CC(=O)N1C[C@H]2[C@@]3(c4ccccc4)CC[C@H](c4ccccc43)[C@@]2(C(=O)O)C1 (relative stereo) [Example 74, (3aRS,4SR,9SR,9aRS)-4,9-ethano-2-(2-ethoxyphenyl)acetyl-9-phenyl-2,3,3a,4,9,9a-hexahydro-1H-benzo[f]isoindole-3a-carboxylic acid]	190
COc1ccccc1NC(=O)N1C[C@@H]2[C@]3(c4ccccc4)CC[C@@H](c4ccccc43)[C@]2(C(=O)O)C1 (relative stereo) [Example 66, (3aRS,4SR,9SR,9aRS)-4,9-Ethano-2-(2-methoxyphenyl)aminocarbonyl-9-phenyl-2,3,3a,4,9,9a-hexahydro-1H-benzo[f]isoindole-3a-carboxylic acid]	9200
COc1ccccc1CCC(=O)N1C[C@@H]2[C@]3(c4ccccc4)CC[C@@H](c4ccccc43)[C@]2(C(=O)O)C1 (relative stereo) [Example 59, (3aRS,4SR,9SR,9aRS)-4,9-Ethano-2-(2-methoxyphenyl)propionyl-9-phenyl-2,3,3a,4,9,9a-hexahydro-1H-benzo[f]isoindole-3a-carboxylic acid]	5000
COc1ccccc1[C@H](C)C(=O)N1CC2C3(c4ccccc4)CCC(c4ccccc43)C2(C(=O)O)C1 (single isomer, unassigned) [Example 34]	590

Same assay, conditions: human farnesyl transferase purified from THP1 cell cultures; p21 H-ras substrate; 20 minutes at 37° C.; 9 concentrations; read-out: in vitro inhibitory activity IC50

IC50 [nM]	Structure (SMILES)
1100	COc1ccccc1CC(=O)N1C[C@H]2[C@@]3(c4ccccc4)CC[C@H](c4ccccc43)[C@@]2(C(=O)NC(CC(=O)O)C(=O)O)C1 (stereo partly drawn) [Example 6, N-[(3aRS, 4SR, 9SR, 9aRS)-4,9-ethano-2-(2-methoxyphenyl)acetyl-9-phenyl-2,3,3a,4,9,9a-hexahydro-1H-benzo[f]isoindolyl-3a-carbonyl]aspartic acid]
3750	COc1ccccc1CC(=O)N1C[C@H]2[C@@]3(c4ccccc4)CC[C@H](c4ccccc43)[C@@]2(CC(=O)NC(CCSC)C(=O)O)C1 (stereo partly drawn) [Example 21, N-[(3aRS, 4SR, 9SR, 9aRS)-4,9-ethano-2-(2-methoxyphenyl)acetyl-9-phenyl-2,3,3a,4,9,9a-hexahydro-1H-benzo[f]isoindole-3a-yl]acetylmethionine]
8700	COc1ccccc1CC(=O)N1C[C@H]2[C@@]3(c4ccccc4)CC[C@H](c4ccccc43)[C@@]2(NC(=O)C(CO)NC(=O)OC(C)(C)C)C1 (some centres unmarked) [Example 14]
3700	COc1cccc(CC(=O)N2C[C@@H]3[C@]4(c5ccccc5)CC[C@@H](c5ccccc54)[C@]3(C(=O)O)C2)c1OC (relative stereo) [Example 36, (3aRS, 4SR, 9SR, 9aRS)-4,9-ethano-2-(2,3-dimethoxyphenyl)acetyl-9-phenyl-2,3,3a,4,9,9a-hexahydro-1H-benzo[f]isoindole-3a-carboxylic acid]
1330	O=C(Cc1ccccc1OCCCN1CCCC1)N1C[C@H]2[C@@]3(c4ccccc4)CC[C@H](c4ccccc43)[C@@]2(C(=O)O)C1 (relative stereo) [Example 32, hydrochloride of (3aRS, 4SR, 9SR, 9aRS)-4,9-ethano-2-[2-(3-pyrrolidinylpropyl)oxyphenyl]-acetyl-9-phenyl-2,3,3a,4,9,9a-hexahydro-1H-benzo[f]isoindole-3a-carboxylic acid]
1100	COc1ccccc1CC(=O)N1C[C@@H]2[C@]3(c4ccccc4)CC[C@@H](c4ccccc43)[C@]2(C(=O)N(C)CC(=O)O)C1 (relative stereo) [Example 49, N-[(3aRS,4SR,9SR,9aRS)-4,9-ethano-2-(2-methoxyphenyl)acetyl-9-phenyl-2,3,3a,4,9,9a-hexahydro-1H-benzo[f]isoindol-3a-yl]carbonyl-N-methylglycine]
450	C=C(C(=O)N1C[C@H]2[C@@]3(c4ccccc4)CC[C@H](c4ccccc43)[C@@]2(C(=O)NCc2ccccn2)C1)c1ccccc1OC [Example 93, (3aS,4R,9R,9aS)-N-[(2-pyridyl)-methyl]-4,9-ethano-2-[(2-methoxyphenyl)prop-2-en-1-oyl]-9-phenyl-2,3,3a,4,9,9a-hexahydro-1H-benzo[f]isoindole-3a-carboxamide]
2150	O=C(Cc1c[nH]c2ccc(Br)cc12)N1C[C@@H]2[C@]3(c4ccccc4)CC[C@@H](c4ccccc43)[C@]2(C(=O)O)C1 (relative stereo) [Example 35, (3aRS, 4SR, 9SR, 9aRS)-4,9-ethano-2-(5-bromo-3-indolyl)acetyl-9-phenyl-2,3,3a,4,9,9a-hexahydro-1H-benzo [f]isoindole-3a-carboxylic acid]
190	C=C(C(=O)N1CC2C3(c4ccccc4)CCC(c4ccccc43)C2(C(=O)N[C@H](C)c2ccccc2)C1)c1ccccc1OC (single isomer, unassigned) [Example 9]
110	C=C(C(=O)N1C[C@@H]2[C@]3(c4ccccc4)CC[C@@H](c4ccccc43)[C@]2(C(=O)NOC)C1)c1ccccc1OC (racemic) [Example 44, (3aRS,4SR,9SR,9aRS)-N-methoxy-4,9-ethano-2-[2-(2-methoxyphenyl)prop-2-en-1-oyl]-9-phenyl-2,3,3a,4,9,9a-hexahydro-1H-benzo[f]isoindole-3a-carboxamide]
3900	COc1ccccc1CC(=O)N1C[C@@H]2[C@]3(c4ccccc4)CC[C@@H](c4ccccc43)[C@]2(C(=O)N(C)C)C1 (relative stereo) [Example 55, (3aRS,4SR,9SR,9aRS)-N,N-dimethyl-4,9-ethano-2-(2-methoxyphenyl)acetyl-9-phenyl-2,3,3a,4,9,9a-hexahydro-1H-benzo[f]isoindole-3a-carboxamide]
330	C=C(C(=O)N1C[C@H]2[C@@]3(c4ccccc4)CC[C@H](c4ccccc43)[C@@]2(C(=O)NC2CCc3ccccc32)C1)c1ccccc1OC (stereo partly drawn) [Example 84, (3aS,4R,9R,9aS)-N-[(R,S)-1-indanyl]-4,9-ethano-2-[(2-methoxyphenyl)prop-2-en-1-oyl]-9-phenyl-2,3,3a,4,9,9a-hexahydro-1H-benzo[f]isoindole-3a-carboxamide]
4800	C=C(C(=O)N1C[C@H]2[C@@]3(c4ccccc4)CC[C@H](c4ccccc43)[C@@]2(C(=O)NCc2ccc(C(F)(F)F)cc2)C1)c1ccccc1OC [Example 92, (3aS,4R,9R,9aS)-N-[4-trifluorobenzyl]-[4,9-ethano-2-(2-methoxyphenyl)prop-2-en-1-oyl]-9-phenyl-2,3,3a,4,9,9a-hexahydro-1H-benzo[f]isoindole-3a-carboxamide]
8800	COc1ccccc1CC(=O)N1C[C@H]2[C@@]3(c4ccccc4)CC[C@H](c4ccccc43)[C@@]2(NC(=O)C(N)CCSC)C1 (stereo partly drawn) [Example 13, (3aRS, 4SR, 9SR, 9aRS)-3a-methionylamino-4,9-ethano-2-(2-methoxyphenyl)acetyl-9-phenyl-2,3,3a,4,9,9a-hexahydro-1H-benzo[f]isoindole]
650	C/C=C(/C(=O)N1C[C@@H]2[C@]3(c4ccccc4)CC[C@@H](c4ccccc43)[C@]2(C(=O)O)C1)c1ccccc1OC (racemic) [Example 78, (3aRS,4SR,9SR,9aRS)-4,9-ethano-2-[2(E)-(2-methoxyphenyl)-2-butenoyl]-9-phenyl-2,3,3a,4,9,9a-hexahydro-1H-benzo[f]isoindole-3a-carboxylic acid]
4700	COc1ccccc1CC(=O)N1C[C@H]2[C@@]3(c4ccccc4)CC[C@H](c4ccccc43)[C@@]2(C(N)=O)C1 (relative stereo) [Example 3, (3aRS, 4SR, 9SR, 9aRS)-4,9-ethano-2-(2-methoxyphenyl)acetyl-9-phenyl-2,3,3a,4,9,9a-hexahydro-1H-benzo[f]isoindole-3a-carboxamide]
5050	COc1ccccc1CC(=O)N1C[C@@H]2[C@]3(c4ccccc4)CC[C@@H](c4ccccc43)[C@]2(C(=O)NN)C1 (relative stereo) [Example 58, hydrazide of (3aRS,4SR,9SR,9aRS)-4,9-ethano-2-(2-methoxyphenyl)acetyl-9-phenyl-2,3,3a,4,9,9a-hexahydro-1H-benzo[f]isoindole-3a-carboxylic acid]
740	COc1ccccc1CC(=O)N1C[C@H]2[C@@]3(c4ccccc4)CC[C@H](c4ccccc43)[C@@]2(C(=O)NCC(=O)O)C1 [Example 48, N-[4,9-ethano-2-(2-methoxyphenyl)acetyl-9-phenyl-2,3,3a(S),4(R),9(R),9a(S)-hexahydro-1H-benzo[f]isoindol-3a-yl]carbonylglycine]
440	COc1ccccc1CC(=O)N1CC2C3(c4ccccc4)CCC(c4ccccc43)C2(C(=O)N[C@@H](CSCc2ccccc2)C(=O)O)C1 (stereo partly drawn) [Example 52, N-[(3aRS,4SR,9SR,9aRS)-4,9-ethano-2-(2-methoxyphenyl)acetyl-9-phenyl-2,3,3a,4,9,9a-hexahydro-1H-benzo[f]isoindol-3a-yl]carbonyl-S-benzyl-L-cysteine]
